Assay results taken from ChEMBL document CHEMBL1150623, “Two new triterpene esters from the twigs of Brachylaena ramiflora from the Madagascar rainforest” (J Nat Prod, 2002).
≈ marks a conversion by molar mass, not a printed value. Numbered stars: 1 amine (or outer) side, 2 acyl side, 3 side chain; on linkers, the order of the positions; unused ones are H or OH. Bridge positions count the residues as written; N and C are the ends. Square brackets hold non-standard residues; d marks the D form. Peptide text beside a SMILES is read from it. I, II: the chains in the order shown. Actinocin(1to9) = Cc1c2oc3c(C)ccc(C(=O)[*:2])c3nc-2c(C(=O)[*:1])c(N)c1=O; NMeV = CN[C@H](C(=O)O)C(C)C; Sar = CNCC(=O)O

These compounds were tested on A2780 (assay: Cytotoxicity against human A2780 cells).
Format: functional, cell-based

CCCCCCCCCCCCCCCC(=O)O[C@H]1CC[C@]2(C)[C@H]3CC=C4[C@@H]5CC(C)(C)CC[C@]5(C)CC[C@@]4(C)[C@]3(C)CC[C@H]2C1(C)C and CCCCCCCCCCCCCCCC(=O)O[C@H]1CC[C@]2(C)[C@H]3CC=C4[C@@H]5CCCC(C)(C)[C@@]5(C)CC[C@@]4(C)[C@]3(C)CC[C@H]2C1(C)C [KAIRATENYL PALMITATE] are within 1.5-fold of each other in IC50: 13.4 µg/mL (≈ 20.1 µM) for the first, 10 µg/mL (≈ 15 µM) for the second.

CCCCCCCCCCCCCCCC(=O)O[C@H]1CC[C@]2(C)[C@H]3CC=C4[C@@H]5[C@@H](C)[C@H](C)CC[C@@]5(C)CC[C@@]4(C)[C@]3(C)CC[C@H]2C1(C)C and C=C(C)[C@H]1CC[C@]2(C)C3CC[C@@H]4[C@@]5(C)CC[C@H](OC(=O)CCCCCCCCCCCCCCC)C(C)(C)[C@@H]5CC[C@@]4(C)[C@]3(C)CC[C@@H]12 (stereo partly drawn) [HOPENYL PALMITATE] are within 1.5-fold of each other in IC50: 15.4 µg/mL (≈ 23.2 µM) for the first, 11.6 µg/mL (≈ 17.4 µM) for the second.

Compared with Cc1c2oc3c(C)ccc(C(=O)N[C@@H]4C(=O)N[C@H](C(C)C)C(=O)N5CCC[C@H]5C(=O)N(C)CC(=O)N(C)[C@@H](C(C)C)C(=O)O[C@@H]4C)c3nc-2c(C(=O)N[C@@H]2C(=O)N[C@H](C(C)C)C(=O)N3CCC[C@H]3C(=O)N(C)CC(=O)N(C)[C@@H](C(C)C)C(=O)O[C@@H]2C)c(N)c1=O [DACTINOMYCIN] (I: T[dV]P[Sar][NMeV] / II: T[dV]P[Sar][NMeV]; ester I:1-I:C, II:1-II:C; linker I:N-II:N via Actinocin(1to9)), C=C(C)[C@@H]1CC[C@]2(C)CC[C@]3(C)[C@H](CC[C@@H]4[C@@]5(C)CC[C@H](OC(C)=O)C(C)(C)[C@@H]5CC[C@]43C)[C@@H]12 [LUPENYL ACETATE] is 7500-fold higher in IC50: 0.002 µg/mL (≈ 0.00159 µM) for the first, 15 µg/mL for the second.

C=C(C)[C@@H]1CC[C@]2(C)CC[C@]3(C)[C@H](CC[C@@H]4[C@@]5(C)CC[C@H](O)C(C)(C)[C@@H]5CC[C@]43C)[C@@H]12 [LUPEOL] and CC(=O)O[C@H]1CC[C@]2(C)[C@H]3CC=C4[C@@H]5CC(C)(C)CC[C@]5(C)CC[C@@]4(C)[C@]3(C)CC[C@H]2C1(C)C [beta-AMYRIN ACETATE] are within 1.5-fold of each other in IC50: 16.2 µg/mL (≈ 38 µM) for the first, 12.1 µg/mL for the second.
